# Results as given in PubChem BioAssay (NCI).
# Where “and” joins values, the source holds several entries; their conditions need not be identical. Equal entries are not always repeated.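 Test compounds were applied to cells in 96-well plates for 48 hours at 5 doses. At the GI50, growth is halved. The concentration for full growth arrest is given as TGI.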
# Test system: SF-539 CNS
# Assay: NCI tumour cell line growth inhibition, 48 h
SMILES,TGI,GI50
Cc1cc(C(C)(C)C)cc(Cc2cc(C(C)(C)C)cc(Cc3cc(C(C)(C)C)cc(C)c3O)c2O)c1O,23.6 µM,
COC(=O)/C(=C\c1ccc(N(CCC#N)CCC#N)cc1)NC(=O)c1cc([N+](=O)[O-])ccc1Cl,> 100 µM,
COC1=C(Br)C(=O)c2nc(C)ccc2C1=O,36.1 µM,
C/C(CCn1[nH]c(=O)ccc1=O)=N\OCCCc1ccccc1,> 100 µM,
COC(=O)c1cccc2cccc(C(=O)Nc3ccc(Cl)cc3)c12,> 100 µM,
Nc1nc(N)c2cc(CNc3ccc(C(=O)NC(CC(=O)O)C(=O)O)c(Cl)c3)ccc2n1 (configuration not stated),> 500 µM,0.05 µM
N.N.NCCCCCCCCCN.O=C([O-])CC(=O)[O-].O=C([O-])CC(=O)[O-].[Pt+4].[Pt+4],> 100 µM,> 100 µM
CC(=O)OC1C2CCC1C1C2C2(Cl)C(Cl)=C(Cl)C1(Cl)C2(Cl)Cl (configuration not stated),30.7 µM,
CC(C(=O)n1c2ccccc2c2ccccc21)N(c1ccccc1)c1ccccc1 (configuration not stated),34.7 µM,
CCOC(=O)Cn1c(=O)n(C)c(=O)c2c1ncn2Cc1ccccc1,> 100 µM,
CCCCc1c2c(nc3c1CCC/C3=C\c1ccccc1)/C(=C/c1ccccc1)CCC2,> 100 µM,
CC(O)CC(O)(C(F)(F)F)C(F)(F)F (configuration not stated),> 10 µM,
CC1=CC(=O)C(C(O)(C(F)(F)F)C(F)(F)F)C(C)(C)C1 (configuration not stated),> 10 µM,
O=C1C(=O)N(c2cc(Cl)ccc2Cl)C(=O)C(=O)C1c1nc2ccccc2o1,> 100 µM,
O=c1c2ccccc2nc(-c2ccccc2)n1NC(=S)Nc1ccccc1,> 100 µM,
CCOC(=O)/C(=C/c1cccc(C#N)c1)N(CC)CC,> 100 µM,
C=CCN1CC2CON(C(=O)C(OC)(c3ccccc3)C(F)(F)F)C2C1C(C)C (configuration not stated),,66.5 µg/mL
O=S1(=O)OCCOS(=O)(=O)C1Cl,> 100 µM,
COc1cc(C2C(C(=O)Nc3cc(F)c(F)cc3F)=C(C)NC(C)=C2C(=O)Nc2cc(F)c(F)cc2F)ccc1O,59.6 µM,
Nc1ccc2nc3n(c2c1)C(=O)c1ccccc1-3,> 100 µM,
O=c1nc(-c2ccccc2)cc(-c2ccccc2O)[nH]1,> 100 µM,
Oc1ccc(Br)cc1C=Nc1ccc(N=Cc2cc(Br)ccc2O)cc1,> 100 µM,
CCOc1ccccc1NC(=O)C(=O)Cc1nc2ccccc2s1,> 100 µM,
C=CCn1c2c(sc1=S)C(S)N=CN2 (configuration not stated),> 100 µM,
CN(C)CCSc1nccc(-c2cc3ccccc3s2)n1,37.2 µM,
O=C(O)CSc1n[nH]c(Cc2ccccc2)n1,> 100 µM,
CCOc1ccccc1NC(=O)C(C#N)C1=C(Cl)C(=O)c2ccccc2C1=O (configuration not stated),3.64 µM and 3.54 µM,

# Test system: MALME-3M melanoma
# Assay: NCI tumour cell line growth inhibition, 48 h
SMILES,GI50,TGI
CN1CCN(c2ccc(Nc3ncc4cc(C#N)c(=O)n(C5CCCC5)c4n3)cc2)CC1,1.9 µM,> 100 µM
Nc1ccc2[nH]cc(CCC(=O)O)c2c1,,> 100 µM
OCC(O)CNc1ccnc2cc(Cl)ccc12 (configuration not stated),,> 100 µM
Cc1cccc(C(C)C)c1NC(=O)C(=O)C(C(=O)c1ccccc1F)C1OC(=O)c2ccccc21 (configuration not stated),,26.9 µM
Cc1cccc(C)c1NC(=O)C(=O)CC(=O)c1cccc([N+](=O)[O-])c1,,> 100 µM
Cc1ccc(S(=O)(=O)NC(=O)NC2=NC(C)(C)N(c3ccc(Cl)c(Cl)c3)C(N)=N2)cc1,,> 100 µM
CC1=C(c2cc(C(=O)Nc3ccc(Cl)cc3)nc(=S)[nH]2)Sc2ccccc2N1,,> 100 µM
O=C(O)CN(c1ccccc1)S(=O)(=O)c1ccc([N+](=O)[O-])cc1,,> 100 µM
CC1=C(C(=O)NNS(=O)(=O)c2ccc(C)cc2)CC(C(=O)NNS(=O)(=O)c2ccc(C)cc2)=C(C)N1,,> 100 µM
[F][Sn]([F])([c]1ccccc1)[c]1ccccc1,1.8 µM,3.33 µM
N#CC(C(=O)CCC(=O)Nc1cccc(C(F)(F)F)c1)c1ccc(Cl)cc1 (configuration not stated),,> 100 µM
Cc1cc(C(C)(C)C)cc(Cc2cc(C(C)(C)C)cc(Cc3cc(C(C)(C)C)cc(C)c3O)c2O)c1O,,22.5 µM
COC(=O)/C(=C\c1ccc(N(CCC#N)CCC#N)cc1)NC(=O)c1cc([N+](=O)[O-])ccc1Cl,,> 100 µM
COC1=C(Br)C(=O)c2nc(C)ccc2C1=O,,30.5 µM
C/C(CCn1[nH]c(=O)ccc1=O)=N\OCCCc1ccccc1,,> 100 µM
COC(=O)c1cccc2cccc(C(=O)Nc3ccc(Cl)cc3)c12,,> 100 µM
Nc1nc(N)c2cc(CNc3ccc(C(=O)NC(CC(=O)O)C(=O)O)c(Cl)c3)ccc2n1 (configuration not stated),> 500 µM,> 500 µM
N.N.NCCCCCCCCCN.O=C([O-])CC(=O)[O-].O=C([O-])CC(=O)[O-].[Pt+4].[Pt+4],28.9 µM,73.3 µM
CC(=O)OC1C2CCC1C1C2C2(Cl)C(Cl)=C(Cl)C1(Cl)C2(Cl)Cl (configuration not stated),,27.1 µM
CC(C(=O)n1c2ccccc2c2ccccc21)N(c1ccccc1)c1ccccc1 (configuration not stated),,28.5 µM
CCOC(=O)Cn1c(=O)n(C)c(=O)c2c1ncn2Cc1ccccc1,,> 100 µM

SMILES,GI50,TGI
CCCCc1c2c(nc3c1CCC/C3=C\c1ccccc1)/C(=C/c1ccccc1)CCC2,,> 100 µM
CC(C)(C)OC(=O)N1N=NC2C1C1CC(OCc3ccccc3)(OCc3ccccc3)C2O1 (configuration not stated),,> 100 µM
CC(O)CC(O)(C(F)(F)F)C(F)(F)F (configuration not stated),,> 10 µM
CC1=CC(=O)C(C(O)(C(F)(F)F)C(F)(F)F)C(C)(C)C1 (configuration not stated),,> 10 µM
O=C1C(=O)N(c2cc(Cl)ccc2Cl)C(=O)C(=O)C1c1nc2ccccc2o1,,> 100 µM
O=C(O)C12CC3(C(=O)O)CC(C(=O)O)(CC(C(=O)O)(C1)C3=O)C2=O,,> 100 µM
O=c1c2ccccc2nc(-c2ccccc2)n1NC(=S)Nc1ccccc1,,> 100 µM
CCOC(=O)/C(=C/c1cccc(C#N)c1)N(CC)CC,,> 100 µM
C=CCN1CC2CON(C(=O)C(OC)(c3ccccc3)C(F)(F)F)C2C1C(C)C (configuration not stated),20 µg/mL,54.5 µg/mL
O=S1(=O)OCCOS(=O)(=O)C1Cl,,> 100 µM
COc1cc(C2C(C(=O)Nc3cc(F)c(F)cc3F)=C(C)NC(C)=C2C(=O)Nc2cc(F)c(F)cc2F)ccc1O,,74.5 µM
Nc1ccc2nc3n(c2c1)C(=O)c1ccccc1-3,,> 100 µM
O=c1nc(-c2ccccc2)cc(-c2ccccc2O)[nH]1,,> 100 µM
Oc1ccc(Br)cc1C=Nc1ccc(N=Cc2cc(Br)ccc2O)cc1,,> 100 µM
CCOc1ccccc1NC(=O)C(=O)Cc1nc2ccccc2s1,,> 100 µM
C=CCn1c2c(sc1=S)C(S)N=CN2 (configuration not stated),,> 100 µM
Cc1cccc(N=C2NC(=O)C(CC(=O)Nc3cccc(C)c3C)S2)c1 (configuration not stated),,> 100 µM
CN(C)CCSc1nccc(-c2cc3ccccc3s2)n1,,36 µM
O=C(O)CSc1n[nH]c(Cc2ccccc2)n1,,> 100 µM
O=C1C(Cl)=C(Nc2ccccc2O)C(=O)N1Cc1ccccc1,22.8 µM,40.4 µM
CCOc1ccccc1NC(=O)C(C#N)C1=C(Cl)C(=O)c2ccccc2C1=O (configuration not stated),,2.91 µM and 3.08 µM

# Test system: HCT-116 colon
# Assay: NCI tumour cell line growth inhibition, 48 h
SMILES,GI50 [µM],TGI [µM]
CN1CCN(c2ccc(Nc3ncc4cc(C#N)c(=O)n(C5CCCC5)c4n3)cc2)CC1,0.587,> 100
Nc1ccc2[nH]cc(CCC(=O)O)c2c1,,> 100
OCC(O)CNc1ccnc2cc(Cl)ccc12 (configuration not stated),,> 100
Cc1cccc(C(C)C)c1NC(=O)C(=O)C(C(=O)c1ccccc1F)C1OC(=O)c2ccccc21 (configuration not stated),,27.5
Cc1cccc(C)c1NC(=O)C(=O)CC(=O)c1cccc([N+](=O)[O-])c1,,> 100
Cc1ccc(S(=O)(=O)NC(=O)NC2=NC(C)(C)N(c3ccc(Cl)c(Cl)c3)C(N)=N2)cc1,,> 100
CC1=C(c2cc(C(=O)Nc3ccc(Cl)cc3)nc(=S)[nH]2)Sc2ccccc2N1,,> 100
CC1=C(C(=O)NNS(=O)(=O)c2ccc(C)cc2)CC(C(=O)NNS(=O)(=O)c2ccc(C)cc2)=C(C)N1,,> 100
[F][Sn]([F])([c]1ccccc1)[c]1ccccc1,1.5,3.26
N#CC(C(=O)CCC(=O)Nc1cccc(C(F)(F)F)c1)c1ccc(Cl)cc1 (configuration not stated),,> 100
Cc1cc(C(C)(C)C)cc(Cc2cc(C(C)(C)C)cc(Cc3cc(C(C)(C)C)cc(C)c3O)c2O)c1O,,10.2
COC(=O)/C(=C\c1ccc(N(CCC#N)CCC#N)cc1)NC(=O)c1cc([N+](=O)[O-])ccc1Cl,,> 100
COC1=C(Br)C(=O)c2nc(C)ccc2C1=O,,21.1
C/C(CCn1[nH]c(=O)ccc1=O)=N\OCCCc1ccccc1,,> 100
COC(=O)c1cccc2cccc(C(=O)Nc3ccc(Cl)cc3)c12,,> 100
Nc1nc(N)c2cc(CNc3ccc(C(=O)NC(CC(=O)O)C(=O)O)c(Cl)c3)ccc2n1 (configuration not stated),0.05,> 500
N.N.NCCCCCCCCCN.O=C([O-])CC(=O)[O-].O=C([O-])CC(=O)[O-].[Pt+4].[Pt+4],> 100,> 100
CC(=O)OC1C2CCC1C1C2C2(Cl)C(Cl)=C(Cl)C1(Cl)C2(Cl)Cl (configuration not stated),,27.8
CC(C(=O)n1c2ccccc2c2ccccc21)N(c1ccccc1)c1ccccc1 (configuration not stated),,32.7
CCOC(=O)Cn1c(=O)n(C)c(=O)c2c1ncn2Cc1ccccc1,,> 100
CCCCc1c2c(nc3c1CCC/C3=C\c1ccccc1)/C(=C/c1ccccc1)CCC2,,> 100
CC(O)CC(O)(C(F)(F)F)C(F)(F)F (configuration not stated),,> 10
O=C1CSC(c2ccc(-c3nc4ccccc4s3)cc2)=N1,24.7,> 100
CC1=CC(=O)C(C(O)(C(F)(F)F)C(F)(F)F)C(C)(C)C1 (configuration not stated),,> 10
O=C1C(=O)N(c2cc(Cl)ccc2Cl)C(=O)C(=O)C1c1nc2ccccc2o1,,> 100
